Assay results taken from patent publication US10174053B2, “2 substituted cephem compounds” (Glaxo Group Limited, priority 2012, dated 2019).
Converted amounts (≈) assume the structure as drawn.

What was measured:
Test in all cases: In vitro antimicrobial activity, MIC by broth microdilution (CLSI)
Assay type in all cases: cell-based
A. baumannii JMI2346 = details: Acinetobacter baumannii, JMI2346; OXA-51, TEM, ESBL and OXA-type carbapenemase producing strain; 5×10^5 cfu/mL; cation-adjusted Iso-Sensitest broth containing human Apo-transferrin; read-out: Minimum Inhibitory Concentration (MIC) A. baumannii JMI:2346
Procedure: (§1) Compound (I) of the invention was evaluated for in vitro antimicrobial activity thereof.
(§2) Measurement of Minimum Inhibitory Concentration (MIC: μg/mL) was conducted according to CLSI (Clinical and Laboratory Standards Institute) method, and the amount of bacteria for inoculation was 5×10^5 cfu/mL, and cation-adjusted Iso-Sensitest broth containing human Apo-transferrin was used as a test medium, and the experiment was conducted using broth microdilution method. The bacteria used are listed below.

A. baumannii JMI7 = details: Acinetobacter baumannii, JMI7; PER-1, OXA-23, 51, ESBL and OXA-type carbapenemase producing strain; 5×10^5 cfu/mL; cation-adjusted Iso-Sensitest broth containing human Apo-transferrin; read-out: Minimum Inhibitory Concentration (MIC) A. baumannii JMI:7
Procedure: as §1, §2

E. Coli JMI1890 = details: Escherichia coli; PER-1, TEM-1, ESBL producing strain; 5×10^5 cfu/mL; cation-adjusted Iso-Sensitest broth containing human Apo-transferrin; read-out: Minimum Inhibitory Concentration (MIC) E. Coli JMI:1890
Procedure: as §1, §2

K. pneumoniae SR01358 = details: Klebsiella pneumoniae, SR01358; KPC-2, ESBL and KPC-type carbapenemase producing strain; 5×10^5 cfu/mL; cation-adjusted Iso-Sensitest broth containing human Apo-transferrin; read-out: Minimum Inhibitory Concentration (MIC) K. pneumoniae SR01358
Procedure: as §1, §2

MIC (A. baumannii JMI2346)	MIC (A. baumannii JMI7)	MIC (E. Coli JMI1890)	MIC (K. pneumoniae SR01358)	Structure (SMILES)
4 µg/mL (≈ 5.22 µM)	1 µg/mL (≈ 1.31 µM)	0.25 µg/mL (≈ 0.326 µM)	≤ 0.031 µg/mL	C[C@@H]1S[C@@H]2[C@H](NC(=O)/C(=N\OC(C)(C)C(=O)[O-])c3csc(N)n3)C(=O)N2C(C(=O)O)=C1C[N+]1(CCNC(=O)c2ccc(O)c(O)c2Cl)CCCC1 [Compound I-52]
4 µg/mL (≈ 5.22 µM)	2 µg/mL (≈ 2.61 µM)	0.25 µg/mL (≈ 0.326 µM)	0.25 µg/mL (≈ 0.326 µM)	C[C@H]1S[C@@H]2[C@H](NC(=O)/C(=N\OC(C)(C)C(=O)[O-])c3csc(N)n3)C(=O)N2C(C(=O)O)=C1C[N+]1(CCNC(=O)c2ccc(O)c(O)c2Cl)CCCC1 [Compound I-53]
16 µg/mL	2 µg/mL	2 µg/mL	0.063 µg/mL	C[C@@H]1S[C@@H]2[C@H](NC(=O)/C(=N\OC(C)(C)C(=O)[O-])c3csc(N)n3)C(=O)N2C(C(=O)[O-])=C1C[N+]1(CCNC(=O)c2cc(O)c(O)c(Cl)c2)CCCC1.[Na+] [Compound I-61]
2 µg/mL	0.5 µg/mL	0.063 µg/mL	≤ 0.031 µg/mL	C[C@@H]1S[C@@H]2[C@H](NC(=O)/C(=N\OC(C)(C)C(=O)[O-])c3csc(N)n3)C(=O)N2C(C(=O)[O-])=C1C[N+]12CCC(CC1)N(C(=O)c1ccc(O)c(O)c1Cl)CC2.[Na+] [Compound I-62]
4 µg/mL	2 µg/mL	0.125 µg/mL	≤ 0.031 µg/mL	C[C@@H]1S[C@@H]2[C@H](NC(=O)/C(=N\OC(C)(C)C(=O)[O-])c3csc(N)n3)C(=O)N2C(C(=O)[O-])=C1C[N+]12CCC[C@H]1CN(C(=O)c1cc(O)c(O)c(Cl)c1)CC2.[Na+] (stereo partly shown) [Compound I-64]
2 µg/mL	0.5 µg/mL	0.125 µg/mL	≤ 0.031 µg/mL	C[C@@H]1S[C@@H]2[C@H](NC(=O)/C(=N\OC(C)(C)C(=O)[O-])c3csc(N)n3)C(=O)N2C(C(=O)[O-])=C1C[N+]12CCC(CC1)N(C(=O)c1cc(O)c(O)c(Cl)c1)CC2.[Na+] [Compound I-65]
2 µg/mL	1 µg/mL	0.25 µg/mL	≤ 0.031 µg/mL	C[C@@H]1S[C@@H]2[C@H](NC(=O)/C(=N\OC(C)(C)C(=O)[O-])c3csc(N)n3)C(=O)N2C(C(=O)[O-])=C1C[N+]12CCC(CC1)N(C(=O)c1cc(O)c(O)c(F)c1)CC2.[Na+] [Compound I-67]
8 µg/mL	2 µg/mL	0.5 µg/mL	≤ 0.031 µg/mL	C[C@@H]1S[C@@H]2[C@H](NC(=O)/C(=N\OC(C)(C)C(=O)[O-])c3csc(N)n3)C(=O)N2C(C(=O)[O-])=C1C[N+]12CCC[C@H]1CN(C(=O)c1cc(O)c(O)c(F)c1)CC2.[Na+] (stereo partly shown) [Compound I-68]
8 µg/mL	1 µg/mL	0.25 µg/mL	≤ 0.031 µg/mL	C[C@@H]1S[C@@H]2[C@H](NC(=O)/C(=N\OC(C)(C)C(=O)[O-])c3csc(N)n3)C(=O)N2C(C(=O)[O-])=C1C[N+]1(C)C[C@H]2CN(C(=O)c3cc(O)c(O)c(F)c3)C[C@H]2C1.[Na+] (stereo partly shown) [Compound I-69]
4 µg/mL	0.25 µg/mL	0.25 µg/mL	≤ 0.031 µg/mL	C[C@@H]1S[C@@H]2[C@H](NC(=O)/C(=N\OC(C)(C)C(=O)[O-])c3csc(N)n3)C(=O)N2C(C(=O)[O-])=C1C[N+]1(CCNC(=O)C(=O)c2ccc(O)c(O)c2Cl)CCCC1.[Na+] [Compound I-74]
4 µg/mL	0.25 µg/mL	0.125 µg/mL	≤ 0.031 µg/mL	C[C@@H]1S[C@@H]2[C@H](NC(=O)/C(=N\OC(C)(C)C(=O)[O-])c3csc(N)n3)C(=O)N2C(C(=O)[O-])=C1C[N+]12CCC(CC1)N(C(=O)C(=O)c1ccc(O)c(O)c1Cl)CC2.[Na+] [Compound I-75]
4 µg/mL	0.5 µg/mL	0.25 µg/mL	≤ 0.031 µg/mL	C[C@@H]1S[C@@H]2[C@H](NC(=O)/C(=N\OC(C)(C)C(=O)[O-])c3csc(N)n3)C(=O)N2C(C(=O)[O-])=C1C[N+]12CCC[C@H]1CN(C(=O)C(=O)c1ccc(O)c(O)c1Cl)CC2.[Na+] (stereo partly shown) [Compound I-76]
16 µg/mL	1 µg/mL	2 µg/mL	≤ 0.031 µg/mL	C[C@@H]1S[C@@H]2[C@H](NC(=O)/C(=N\OC(C)(C)C(=O)[O-])c3csc(N)n3)C(=O)N2C(C(=O)[O-])=C1C[N+]1(CCNC(=O)C(=O)c2cc(O)c(O)c(F)c2)CCCC1.[Na+] [Compound I-84]

Structure (SMILES)	MIC (A. baumannii JMI2346)	MIC (A. baumannii JMI7)	MIC (E. Coli JMI1890)	MIC (K. pneumoniae SR01358)
C[C@@H]1S[C@@H]2[C@H](NC(=O)/C(=N\OC(C)(C)C(=O)[O-])c3csc(N)n3)C(=O)N2C(C(=O)O)=C1C[N@+]1(C)[C@@H]2CC[C@H]1C[C@@H](NC(=O)c1ccc(O)c(O)c1Cl)C2 [Compound I-54]	1 µg/mL (≈ 1.26 µM)	0.5 µg/mL (≈ 0.631 µM)	0.125 µg/mL (≈ 0.158 µM)	≤ 0.031 µg/mL
C[C@@H]1S[C@@H]2[C@H](NC(=O)/C(=N\OC(C)(C)C(=O)[O-])c3csc(N)n3)C(=O)N2C(C(=O)[O-])=C1C[N+]12CCC(CNC(=O)c3cc(O)c(O)c(Cl)c3)(CC1)CC2.[Na+] [Compound I-60]	4 µg/mL	1 µg/mL	1 µg/mL	≤ 0.031 µg/mL
C[C@@H]1S[C@@H]2[C@H](NC(=O)/C(=N\OC(C)(C)C(=O)[O-])c3csc(N)n3)C(=O)N2C(C(=O)[O-])=C1C[N+]1(C)[C@@H]2CC[C@H]1C[C@@H](NC(=O)c1cc(O)c(O)c(Cl)c1)C2.[Na+] (stereo partly shown) [Compound I-66]	1 µg/mL	0.25 µg/mL	0.063 µg/mL	≤ 0.031 µg/mL
C[C@@H]1S[C@@H]2[C@H](NC(=O)/C(=N\OC(C)(C)C(=O)[O-])c3csc(N)n3)C(=O)N2C(C(=O)[O-])=C1C[N+]1(C)[C@@H]2CC[C@H]1C[C@@H](NC(=O)c1cc(O)c(O)c(F)c1)C2.[Na+] (stereo partly shown) [Compound I-71]	2 µg/mL	0.5 µg/mL	0.25 µg/mL	≤ 0.031 µg/mL
C[C@@H]1S[C@@H]2[C@H](NC(=O)/C(=N\OC(C)(C)C(=O)[O-])c3csc(N)n3)C(=O)N2C(C(=O)[O-])=C1C[N+]12CCC(CNC(=O)c3cc(O)c(O)c(F)c3)(CC1)CC2.[Na+] [Compound I-72]	4 µg/mL	1 µg/mL	0.125 µg/mL	≤ 0.031 µg/mL
C[C@@H]1S[C@@H]2[C@H](NC(=O)/C(=N\OC(C)(C)C(=O)[O-])c3csc(N)n3)C(=O)N2C(C(=O)[O-])=C1C[N+]12CCC(CN3C(=O)c4cc(O)c(O)cc4C3=O)(CC1)CC2.[Na+] [Compound I-73]	2 µg/mL	0.25 µg/mL	0.063 µg/mL	≤ 0.031 µg/mL
C[C@@H]1S[C@@H]2[C@H](NC(=O)/C(=N\OC(C)(C)C(=O)[O-])c3csc(N)n3)C(=O)N2C(C(=O)[O-])=C1C[N+]1(C)[C@@H]2CC[C@H]1C[C@@H](N1C(=O)c3cc(O)c(O)cc3C1=O)C2.[Na+] (stereo partly shown) [Compound I-77]	1 µg/mL	0.5 µg/mL	0.25 µg/mL	≤ 0.031 µg/mL
C[C@@H]1S[C@@H]2[C@H](NC(=O)/C(=N\OC(C)(C)C(=O)[O-])c3csc(N)n3)C(=O)N2C(C(=O)[O-])=C1C[N+]12CCC(CNC(=O)C(=O)c3cc(O)c(O)c(F)c3)(CC1)CC2.[Na+] [Compound I-81]	8 µg/mL	2 µg/mL	0.5 µg/mL	≤ 0.031 µg/mL
C[C@@H]1S[C@@H]2[C@H](NC(=O)/C(=N\OC(C)(C)C(=O)[O-])c3csc(N)n3)C(=O)N2C(C(=O)[O-])=C1C[N@+]1(C)[C@@H]2CC[C@H]1C[C@@H](NC(=O)C(=O)c1cc(O)c(O)c(F)c1)C2.[Na+] [Compound I-83]	2 µg/mL	0.5 µg/mL	0.063 µg/mL	≤ 0.031 µg/mL
